Where two headings read alike, the source gives them in different places.
Tests used:
[1] = system: Demi-calvarias of newly born mice; assay: Osseous formation in tissue culture: incorporation of tritiated proline (T/C ratio); assay type: cell-based; details: 48 h, n = 7
Experimental: (§1) The activity on osseous formation and the anti-resorbing activity of compounds potentially active as medicaments may be detected and measured in vitro in tissue culture.
Demi-calvarias of newly born mice (1-2 days) are cultured on gratings in BGJ medium containing tritiated proline. The explants are cultured for 48 h in the presence of the tested compound at 37° C. and at the end of the culture the bones are washed in trichloroacetic acid containing non-radioactive proline in order to remove the ^3 H-proline which has not been incorporated.
After washing and dissolving in sodium hydroxide solution, the incorporation of the labler in the bone and the amount of total proteins are counted. The effect of the product on the incorporation of proline in the bone in culture is thus evaluated.
Each treated demi-calvaria is compared with the untreated demi-calvaria which serves as control and the T/C ratio is calculated. [formula]
A stimulation of the osseous formation is reflected by a higher incorporation of tritiated proline in the treated demi-calvaria than in the control (T/C>1). An inhibition of the osseous formation is shown by a T/C ratio of <1.
The compounds were tested at concentrations of 10^-4, 10^-6, 10^-8, 10^-10 and 10^-12 M.
6 to 9 experiments were carried out per point.

[2] = system: forearms of rat foetuses (PTH-stimulated osseous resorption); assay: Osseous resorption in tissue culture: 45Ca salted out from PTH-stimulated foetal forearm bones; assay type: cell-based, rats
Experimental: as §1
18-day pregnant rats are injected with 150 μcuries of ^45 Ca subcutaneously.
On the 19th day the rats are sacrificed and the foetuses are removed, immersed in a bath of alcohol at 70° are then two baths of PBS and killed by cutting off the head. The two forearms are dissected, the skin, the tendons and the muscles are removed and the cartilaginous extremities are cut off. The forearms are cultured in 24-well culture boxes in the presence of 1.5 ml of MEM for 24 hours for equilibration. At the end of said 24 hours, the medium is replaced by 1.5 ml of BGJB supplemented with 10% of foetal calf serum. The resorption is stimulated in all of the samples by […] of PTH. The bones are cultured for two successive periods of 72 hours each and the culture media are removed to determine the amount of ^45 Ca salted out at the end of each of these two periods. At the end of the second period (7 days after the start of culture), the bones are immersed for 24 hours in 1.5 ml of 10% formic acid and the ^45 Ca salted out from the bones is also determined in a scintillation counter.
The results are expressed for each of the two culture periods by the treated/control ratio calculated in the following way: [formula]
The compounds were tested on this model at concentrations of 5×10^-3 and 5×10^-4 M.

[3] = Bioavailability (Sr2+ by atomic absorption spectrometry); details: rat, in vivo, po, 50 mg/kg; male wistar rats, 50 mg Sr2+ per kg, gelatin mini capsules; compared with strontium chloride; read-out: Absolute bioavailability
Experimental: the determination was carried out on groups of 5 male wistar rats
administration is in a dose of 50 mg of Sr^2+ per kg in the form of gelatin mini capsules,
the determination was carried out by atomic absorption spectrometry using flame ionisation for the concentrations higher than 1 μg/ml and furnace ionisation for the concentrations lower than 1 μg/ml

[4] = PTH alone (reference of the ratio)

Molecule: CCOC(OC(CO)C(=O)O)C(=O)O (stereo not drawn) [Example 1, Strontium 2-ethoxy-4-hydroxymethyl-3-oxa pentanedioate]
- Osseous formation, T/C ratio, maximum value ([1]; 10^-4 M): 1.8034
- Osseous formation, T/C ratio, minimum value ([1]; 10^-4 M): 1.2095
- Osseous formation, T/C ratio, maximum value ([1]; 10^-6 M): 1.4652
- Osseous formation, T/C ratio, minimum value ([1]; 10^-6 M): 0.8433
- Osseous formation, T/C ratio, maximum value ([1]; 10^-8 M): 1.2092
- Osseous formation, T/C ratio, minimum value ([1]; 10^-8 M): 0.8511
- Osseous formation, T/C ratio, maximum value ([1]; 10^-10 M): 1.0974
- Osseous formation, T/C ratio, minimum value ([1]; 10^-10 M): 0.8467
- Osseous formation, T/C ratio, maximum value ([1]; 10^-12 M): 1.2822
- Osseous formation, T/C ratio, minimum value ([1]; 10^-12 M): 0.8988
- activity at 100 µM ([1]; Mus musculus, 10^-4 M, 37° C., marked **): 150%
- activity at 1 µM ([1]; Mus musculus, 10^-6 M, 37° C.): 107%
- activity at 0.01 µM ([1]; Mus musculus, 10^-8 M, 37° C.): 103%
- activity at 0.0001 µM ([1]; Mus musculus, 10^-10 M, 37° C.): 97.2%
- activity at 1 pM ([1]; Mus musculus, 10^-12 M, 37° C.): 106%
- Level of osseous resorption (%), D1-D4 ([2]; 5 10^-3 (M), PTH-stimulated, 9 determinations per point, (c) different from PTH at p < 0.05): 6.4 ± 0.9%
- Level of osseous resorption (%), D1-D4 ([2]; 5 10^-4 (M), PTH-stimulated, 9 determinations per point): 14.5 ± 4.1%
- activity at 5000 µM ([2]; Rattus norvegicus, 5 10^-3 (M), PTH-stimulated, read-out: Osseous resorption T/C, D1-D4): 45%
- activity at 5000 µM ([2]; Rattus norvegicus, 5 10^-3 (M), PTH-stimulated, read-out: Osseous resorption T/C, D4-D7): 6%
- activity at 500 µM ([2]; Rattus norvegicus, 5 10^-4 (M), PTH-stimulated, read-out: Osseous resorption T/C, D1-D4): 101%
- activity at 500 µM ([2]; Rattus norvegicus, 5 10^-4 (M), PTH-stimulated, read-out: Osseous resorption T/C, D4-D7): 84%
- minimal effective concentration ([2]; Rattus norvegicus, in vitro, PTH-stimulated, read-out: Concentration from which anti-resorbing activity is statistically significant): 500 µM
- bioavailability [3]: 60.5%

B1: PTH: PTH, used to stimulate the resorption in all of the samples (protein, UniProt P01270 32-115, looked up)
Parathyroid hormone: SVSEIQLMHNLGKHLNSMERVEWLRKKLQDVHNFVALGAPLAPRDAGSQRPRKKEDNVLVESHEKSLGEADKADVNVLTKAKSQ
modifications: Parathyroid hormone
notes: PTH, used to stimulate the resorption in all of the samples
- Osseous resorption T/C, D1-D4 [2, 4]: 1.00
- Osseous resorption T/C, D4-D7 [2, 4]: 1.00
- Level of osseous resorption (%), D1-D4 ([2]; PTH alone, 9 determinations per point, (a) different from control at p < 0.05): 14.3 ± 3.4%
- Level of osseous resorption (%), D1-D7 ([2]; PTH alone, 9 determinations per point, (b) different from control at p < 0.0001): 37.0 ± 7.6%

— patent US5075336A, “Alkaline earth metal salts of oxa polyacid compounds” (Adir et Compagnie, priority 1990, dated 1991)
